Values quoted from earlier work in US10307441B2, “Pharmaceutical formulations of nitrite and uses thereof” (Board of Supervisors of Louisiana State University and …, priority 2009, dated 2019).

[1] = assumed mid-range PK constant for simulation

O=NO [NaNO2, Sodium nitrite]
oral bioavailability (assumed PK constant for simulation): 100%
clearance [1]: 60.375 L/h
half-life [1]: 45 min
